The source made the active and inactive calls. The calls are words filed in the database; no cut-off is given here.

Series [1] can be described thus: Acute toxicity in rat assessed as fur wrinkles at 2000 mg/kg, IG administered as single dose. The format is organism-based. The following applies: in vivo, po.
Series [2] concerns Rattus norvegicus. In words: Antiinflammatory activity in complete freund's adjuvant-induced IG dosed male Sprague-Dawley rat model of arthritis assessed as decrease in IL-6 level in serum after 4 weeks by ELISA. The format is functional, organism-based. The conditions noted are these: dose 40-80 mg/kg.
The test system of a further series is RAW264.7. In words: Antiinflammatory activity against mouse RAW264.7 cells assessed as inhibition of LPS-induced NO production at 10 uM preincubated for 1 hrs followed by LPS stimulation and measured after 24 hrs by Griess assay relative to control. In kind it is functional. The following applies: time 25 hrs. For orientation: The Griess reaction detects nitrite, a stable product of nitric oxide.

The nature of series [3]: Subacute toxicity in rat assessed as heart damage at 100 to 500 mg/kg, IG administered every other day for 14 days and measured every 2 days by H and E staining. The format is organism-based. The conditions noted are these: in vivo, po, 336 h, dose 100-500 mg/kg, time 14 day.
A short description of series [4]: Oral bioavailability in Sprague-Dawley rat at 10 mg/kg measured after 0.25 to 24 hrs hrs by LC-MS/MS analysis. The conditions noted are these: in vivo, time 0.25-24 hrs. In kind it is ADME, organism-based.
Series [5] relates to Rattus norvegicus. The series can be described thus: Antiinflammatory activity in complete freund's adjuvant-induced male Sprague-Dawley rat model of arthritis assessed as reduction in synovial hyperplasia at 80 mg/kg, IG after 4 weeks by H and E staining based histopathological analysis. The format is functional, organism-based.
A short description of series [6]: Subacute toxicity in rat assessed as drowsiness at 100 to 500 mg/kg, IG administered every other day for 14 days and measured every 2 days. The format is organism-based. The following applies: in vivo, po, 336 h, dose 100-500 mg/kg, time 14 day.
Series [7] in a line: Cmax in Sprague-Dawley rat at 1 mg/kg, iv measured after 0.08 to 24 hrs by LC-MS/MS analysis. The format is ADME, organism-based. More on the design: route intravenous, time upper 24 hrs, dose 1 mg/kg, time lower 0.08 hrs. The conditions noted are these: in vivo.
Series [8] in a line: Acute toxicity in IG dosed rat assessed as maximum tolerated dose. The format is organism-based. The following applies: in vivo, po.
A further series concerns the target Cytochrome P450 2C19 (Homo sapiens, UniProt P33261). The series can be described thus: Inhibition of CYP2C19 in human liver microsomes using Mephenytoin as substrate measured after 20 mins by LC-MS/MS analysis. In kind it is ADME. (Microsomes from liver hold many membrane-bound enzymes, among them those of drug oxidation.)
The nature of series [9]: Metabolic stability in rat hepatocytes assessed as parent compound remaining after 120 mins by LC-MS/MS analysis. In kind it is ADME, cell-based, Hepatocyte. The conditions noted are these: read-out: Stabilty.

Cytochrome P450 2C19, sequence (P33261 whole entry): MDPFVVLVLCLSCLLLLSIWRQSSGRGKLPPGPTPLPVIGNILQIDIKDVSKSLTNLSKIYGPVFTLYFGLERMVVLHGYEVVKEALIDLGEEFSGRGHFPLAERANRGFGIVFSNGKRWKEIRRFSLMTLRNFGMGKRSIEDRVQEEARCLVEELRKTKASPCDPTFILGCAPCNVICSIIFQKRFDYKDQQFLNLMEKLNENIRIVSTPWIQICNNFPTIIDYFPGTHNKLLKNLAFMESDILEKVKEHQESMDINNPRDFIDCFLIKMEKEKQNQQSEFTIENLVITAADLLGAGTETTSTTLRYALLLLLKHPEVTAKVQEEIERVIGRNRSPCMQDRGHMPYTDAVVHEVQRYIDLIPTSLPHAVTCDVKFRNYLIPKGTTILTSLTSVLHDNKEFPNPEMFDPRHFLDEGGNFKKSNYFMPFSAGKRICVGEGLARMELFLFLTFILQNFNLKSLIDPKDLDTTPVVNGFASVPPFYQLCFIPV

The inhibition is the percentage by which the read-out fell short of the control. Broadly, the bioavailability is dose-corrected exposure relative to a reference, in per cent. Low readings indicate little systemic uptake, high ones much systemic uptake. For orientation: Cmax means the peak of the concentration-time curve. For orientation: MTD means the highest dose tested that stayed within the study's limit of toxicity. Broadly, the IC50 is the concentration at which inhibition is half-maximal. Higher therefore signals weaker potency. For `COc1cc(/C=C/c2nc(NCc3ccc(C)cc3)c3sccc3n2)cc(OC)c1OC`, the Activity result in series [1] is “Non-Toxic”; with Rattus norvegicus [2], “Dose-Dependent Effect”; in series [3] it was “Non-Toxic”; in series [6], “Non-Toxic”. The inhibition at 10 µM in the series on RAW264.7 was determined as 98.3%. The molecule also gave a bioavailability in [4] of 29.9%. Also, in the series with Rattus norvegicus [5], the outcome was Active. In [7], this molecule came in with a Cmax of 388 ng/mL. The MTD in [8] came to 2000 mg/kg. The same molecule showed an IC50 at Cytochrome P450 2C19 of 7.76 µM. Also, in series [9], the remaining at 2 h worked out at 22.2%.

The record behind these values is ChEMBL document CHEMBL4813945, “Discovery and development of novel pyrimidine and pyrazolo/thieno-fused pyrimidine derivatives as potent and orally active inducible nitric oxide synthase dimerization inhibitor with efficacy for arthritis” (Eur J Med Chem, 2021).
